Measurements: ChEMBL document CHEMBL1201862, “PubChem BioAssay data set” (2004)
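Interpolation was linear, between the two tested concentrations surrounding the appropriate level; five concentrations were tested over 48 hours in 96-well plates. At the GI50, growth is halved.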 Activity calls are given as the source filed them. Cut-off read from the data, not from the text of the source: active = GI50 up to about 1.1 µM and inactive = higher.

What was measured:
Test in all cases: inhibition of tumour cell growth, NCI panel, 48 h
DLD-1 = test system: DLD-1
DMS-114 = test system: DMS-114
HOP-18 = test system: HOP-18
KM-20L2 = test system: KM-20L2
M19-MEL = test system: M19-MEL
SNB-78 = test system: SNB-78
XF498 = test system: XF498
DMS-273 = test system: DMS-273
RXF 631 = test system: RXF 631

| Structure (SMILES) | GI50 (DLD-1) | GI50 (DMS-114) | GI50 (HOP-18) | GI50 (KM-20L2) | GI50 (M19-MEL) | GI50 (SNB-78) | GI50 (XF498) | GI50 (DMS-273) | GI50 (RXF 631) |
| --- | --- | --- | --- | --- | --- | --- | --- | --- | --- |
| NNC(=S)N/N=C(/C(=O)Nc1cc(Cl)ccc1Cl)C1C(=O)Nc2ccccc2[S+]1[O-] (stereo not drawn) | > 100 µM (inactive) | > 100 µM (inactive) | > 100 µM (inactive) | > 100 µM (inactive) | > 100 µM (inactive) | > 100 µM (inactive) | > 100 µM (inactive) | – | – |
| CCCCC/C=C1\CCC(CN(C)C)C1=O (stereo not drawn) | 3.73 µM (inactive) | 13.5 µM (inactive) | 24 µM (inactive) | 15.1 µM (inactive) | 10.4 µM (inactive) | 19.7 µM (inactive) | 14.9 µM (inactive) | 13.6 µM (inactive) | 14.7 µM (inactive) |
| C/C=C/C=N/N(C(=O)c1cc([N+](=O)[O-])cc([N+](=O)[O-])c1)C1=NN=C(c2ccccc2)C(c2ccccc2)N1 (stereo not drawn) | 75.7 µM (inactive) | 21 µM (inactive) | > 100 µM (inactive) | 32.1 µM (inactive) | 21.6 µM (inactive) | 52.8 µM (inactive) | 36 µM (inactive) | 46 µM (inactive) | > 100 µM (inactive) |
| CCCCCCCCCCCC(=O)OCCOCCOCCOCCOCCOC(=O)CCCCCCCCCCC | > 100 µM (inactive) | > 100 µM (inactive) | > 100 µM (inactive) | > 100 µM (inactive) | > 100 µM (inactive) | > 100 µM (inactive) | – | > 100 µM (inactive) | > 100 µM (inactive) |
| Cc1cccc(C)c1NC(=O)CCCC(=O)C1/C(=N/NC(=O)CC#N)CCC/C1=N\NC(=O)CC#N (stereo not drawn) | > 100 µM (inactive) | > 100 µM (inactive) | > 100 µM (inactive) | > 100 µM (inactive) | > 100 µM (inactive) | > 100 µM (inactive) | > 100 µM (inactive) | > 100 µM (inactive) | > 100 µM (inactive) |
| COC(=O)C(C(=O)C(=O)Nc1c(Cl)cc([N+](=O)[O-])cc1Cl)c1nc2cc(C)c(C)cc2nc1O (stereo not drawn) | > 100 µM (inactive) | 76.4 µM (inactive) | 72.6 µM (inactive) | > 100 µM (inactive) | > 100 µM (inactive) | > 100 µM (inactive) | – | > 100 µM (inactive) | > 100 µM (inactive) |
| COc1ccc(C2=C3c4cc(OC)c(OC)cc4CCN3C(=S)SS2)cc1OC | 33.7 µM (inactive) | 65.2 µM (inactive) | > 100 µM (inactive) | 75.9 µM (inactive) | 53.2 µM (inactive) | 80.4 µM (inactive) | – | 43.5 µM (inactive) | – |
| C=CC(=O)NC(=N)NC#N | 153 µM (inactive) | 114 µM (inactive) | 148 µM (inactive) | 150 µM (inactive) | 140 µM (inactive) | 179 µM (inactive) | 97.3 µM (inactive) | – | – |
| CC(C)(C)OC1=C(OC(C)(C)C)C(O)(c2ccc(Cl)cc2)C1=O (stereo not drawn) | > 100 µM (inactive) | > 100 µM (inactive) | > 100 µM (inactive) | – | > 100 µM (inactive) | > 100 µM (inactive) | – | > 100 µM (inactive) | 86.5 µM (inactive) |
| CCC1(OC(=O)CNC)C(=O)OCc2c1cc1n(c2=O)Cc2cc3ccccc3nc2-1 (stereo not drawn) | 0.294 µM (active) | – | 0.0177 µM (active) | 0.0336 µM (active) | – | 0.263 µM (active) | – | < 0.01 µM (active) | < 0.01 µM (active) |
| O=C(Nc1cc(C(F)(F)F)ccc1Cl)C(=O)C(C(=O)c1ccc2ccccc2c1)C1OC(=O)c2ccccc21 (stereo not drawn) | 9.82 µM (inactive) | 11.4 µM (inactive) | – | 20.4 µM (inactive) | 11.8 µM (inactive) | – | – | – | – |
| Cc1cc2c3ccccc3n(C)c2c2c1C(=O)c1ccccc1C2=O | 14.6 µM (inactive) | 17.1 µM (inactive) | – | – | 3.01 µM (inactive) | – | 15.9 µM (inactive) | 19.4 µM (inactive) | 21.9 µM (inactive) |
| CCCCCCCc1cc(OC(=O)c2c(C)cc(OC)cc2O)cc(O)c1C(=O)O | 19.8 µM (inactive) | – | – | 21.2 µM (inactive) | 23.6 µM (inactive) | 29.2 µM (inactive) | – | 28.8 µM (inactive) | 25.5 µM (inactive) |
